# Measured values taken from publication PMC6887720 (Pharmacology Research & Perspectives, 2019).
# Like-named read-outs stand apart in the source and are kept apart here. Residues, ends and D or L forms follow the SMILES beside them. No end group written: not given here.
# Key:
# [1] = system: HEK293-MSRII-Gα16 cells; assay: Ca2+ mobilization, untransfected HEK293-MSRII-Gα16 host cells; assay type: cell-based, human; conditions: data not shown
# [2] = target: human MrgX1 (hMrgX1) (Homo sapiens, UniProt Q96LB2); assay: Ca2+ mobilization; assay type: cell-based; conditions: hMrgX1-Gα16 cells
# human MrgX1 (hMrgX1), sequence (Q96LB2 whole entry): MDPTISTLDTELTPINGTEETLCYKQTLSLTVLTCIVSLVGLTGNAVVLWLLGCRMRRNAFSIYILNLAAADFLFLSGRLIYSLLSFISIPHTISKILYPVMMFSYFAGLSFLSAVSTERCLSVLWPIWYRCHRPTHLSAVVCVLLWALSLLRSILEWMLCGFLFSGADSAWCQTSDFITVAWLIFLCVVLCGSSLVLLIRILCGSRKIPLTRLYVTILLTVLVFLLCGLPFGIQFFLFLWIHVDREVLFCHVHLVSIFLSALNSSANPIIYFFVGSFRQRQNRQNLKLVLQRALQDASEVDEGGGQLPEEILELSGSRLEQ
# [3] = target: T1, mouse MrgX2 (mMrgX2, Mrgprb2) (Mus musculus, UniProt Q3KNA1); assay: Ca2+ mobilization; assay type: cell-based; conditions: no Gα16, up to 1mM
# T1 sequence (Q3KNA1 1-338): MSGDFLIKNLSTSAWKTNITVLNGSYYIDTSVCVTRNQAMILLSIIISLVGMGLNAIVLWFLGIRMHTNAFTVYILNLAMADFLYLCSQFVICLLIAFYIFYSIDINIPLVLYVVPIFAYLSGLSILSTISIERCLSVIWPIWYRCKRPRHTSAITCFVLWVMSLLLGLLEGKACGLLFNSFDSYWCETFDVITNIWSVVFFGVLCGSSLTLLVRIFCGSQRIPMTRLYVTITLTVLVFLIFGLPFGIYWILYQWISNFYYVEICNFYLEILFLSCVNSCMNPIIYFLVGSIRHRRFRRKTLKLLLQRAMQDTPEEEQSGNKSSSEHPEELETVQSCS
# [4] = cited from earlier work
# [5] = minipig; cited from earlier work
# [6] = system: rat MrgX2 (rMrgX2, Mrgprb3); assay: Ca2+ mobilization; assay type: cell-based; conditions: for calcium response (in words): no Gα16
# [7] = target: T2, human MrgX2 (hMrgX2) (Homo sapiens, UniProt Q96LB1); assay: Ca2+ mobilization; assay type: cell-based
# T2 sequence (Q96LB1 1-330): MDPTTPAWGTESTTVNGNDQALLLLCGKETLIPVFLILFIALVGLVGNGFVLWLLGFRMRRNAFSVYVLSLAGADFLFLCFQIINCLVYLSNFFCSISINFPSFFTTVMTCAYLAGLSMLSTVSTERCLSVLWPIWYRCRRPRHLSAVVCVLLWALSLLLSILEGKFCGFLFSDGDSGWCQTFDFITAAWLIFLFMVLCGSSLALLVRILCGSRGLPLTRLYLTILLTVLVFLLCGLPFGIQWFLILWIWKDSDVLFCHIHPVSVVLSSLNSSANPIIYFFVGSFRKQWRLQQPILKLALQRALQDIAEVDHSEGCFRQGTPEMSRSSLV
# [8] = target: T3, minipig MrgX2 (mpMrgX2) (Sus scrofa, UniProt A0A4Y5P9C0); assay: Ca2+ mobilization; assay type: cell-based; conditions: for calcium response (in words): truncated mpMrgX2
# T3 sequence (A0A4Y5P9C0 38-367): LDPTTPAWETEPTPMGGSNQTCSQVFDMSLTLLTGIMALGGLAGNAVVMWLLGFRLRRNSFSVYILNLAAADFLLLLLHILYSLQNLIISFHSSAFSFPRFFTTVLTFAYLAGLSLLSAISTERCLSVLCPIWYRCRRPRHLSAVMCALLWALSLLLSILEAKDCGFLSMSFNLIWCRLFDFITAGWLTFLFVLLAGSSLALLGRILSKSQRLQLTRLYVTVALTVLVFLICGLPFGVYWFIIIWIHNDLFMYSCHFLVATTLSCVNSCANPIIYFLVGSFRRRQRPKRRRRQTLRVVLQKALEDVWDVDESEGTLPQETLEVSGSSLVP
# [9] = dog, cited from earlier work
# [10] = target: T4, truncated beagle MrgX2 (beMrgX2) (Canis lupus familiaris, UniProt A0A4Y5P885); assay: Ca2+ mobilization; assay type: cell-based, beagle dog; conditions: for calcium response (in words): truncated beMrgX2
# T4 sequence (A0A4Y5P885 88-417): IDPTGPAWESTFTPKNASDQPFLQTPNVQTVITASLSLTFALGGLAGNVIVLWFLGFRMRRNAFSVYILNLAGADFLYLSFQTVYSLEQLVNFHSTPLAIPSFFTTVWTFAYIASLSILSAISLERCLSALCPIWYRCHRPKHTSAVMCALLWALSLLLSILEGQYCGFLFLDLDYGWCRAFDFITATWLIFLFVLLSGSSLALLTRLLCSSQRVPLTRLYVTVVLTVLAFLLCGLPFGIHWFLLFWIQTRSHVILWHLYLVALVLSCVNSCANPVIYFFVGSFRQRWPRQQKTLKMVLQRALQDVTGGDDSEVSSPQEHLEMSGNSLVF
# [11] = system: U2OS cells (untransfected); assay: Ca2+ mobilization in U2OS cells lacking MrgX2; assay type: cell-based, human
# [12] = target: T2, human MrgX2 (hMrgX2); assay: Ca2+ mobilization; assay type: cell-based; remark: listed apart in the source
# [13] = system: mpMrgX2; assay: Ca2+ mobilization, mpMrgX2 transfected into HEK293-MSRII-Gα16 cells; assay type: cell-based, minipig; conditions: data not shown
# [14] = system: rat; assay: Intravenous pharmacokinetic study in rat: observed adverse signs; assay type: in vivo; conditions: intravenous bolus 5 mg/kg
# [15] = target: EED (embryonic ectoderm development) (Homo sapiens, UniProt O75530); assay: Binding to EED
# EED (embryonic ectoderm development), sequence (O75530 whole entry, species assumed): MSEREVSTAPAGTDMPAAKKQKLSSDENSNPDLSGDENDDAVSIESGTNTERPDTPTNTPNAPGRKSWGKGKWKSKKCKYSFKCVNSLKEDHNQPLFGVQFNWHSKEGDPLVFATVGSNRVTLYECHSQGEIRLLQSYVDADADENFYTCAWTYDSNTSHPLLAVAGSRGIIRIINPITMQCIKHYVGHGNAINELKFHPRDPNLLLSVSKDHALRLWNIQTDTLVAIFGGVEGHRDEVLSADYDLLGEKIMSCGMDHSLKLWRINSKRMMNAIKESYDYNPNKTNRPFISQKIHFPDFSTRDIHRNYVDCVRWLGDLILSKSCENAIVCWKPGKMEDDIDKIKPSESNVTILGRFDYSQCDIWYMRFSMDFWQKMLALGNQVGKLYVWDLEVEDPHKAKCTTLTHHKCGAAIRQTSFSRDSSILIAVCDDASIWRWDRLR
# [16] = system: mouse MrgX2 versus human MrgX2; conditions: cited from earlier work
# [17] = system: pig MrgX2 (pMrgX2); assay: Ca2+ mobilization; assay type: cell-based; conditions: data not shown
# [18] = untransfected U2OS parent cells
compound,measurement,setting,value
NCCc1c[nH]cn1 [histamine],calcium response (in words),[1],did not cause calcium release
VGRPEWWMDYNKRYG [BAM8-22],calcium response (in words),[2],higher potency at hMrgX1‐Gα16 cells
CN[C@H](CC(C)C)C(=O)N[C@H]1C(=O)N[C@@H](CC(N)=O)C(=O)N[C@H]2C(=O)N[C@H]3C(=O)N[C@H](C(=O)N[C@H](C(=O)O)c4cc(O)cc(O)c4-c4cc3ccc4O)[C@H](O)c3ccc(c(Cl)c3)Oc3cc2cc(c3O[C@@H]2O[C@H](CO)[C@@H](O)[C@H](O)[C@H]2O[C@H]2C[C@](C)(N)[C@H](O)[C@H](C)O2)Oc2ccc(cc2Cl)[C@H]1O [vancomycin],calcium response (in words),[3],did not reach maximal effect at 1mM
same,protein binding,[4]; serum,50%
same,Cmax,[4]; vancomycin-treated patients,> 30 µM
same,trough (lowest) free serum concentration,[4]; vancomycin-treated patients,≈ 5 ± 2 µmol/L
same,trough serum concentration,[4]; vancomycin-treated patients,13.6 ± 5.9 mg/L
same,Cmax,[5],34000 ng/mL
same,free Cmax,[5],≈ 23 µmol/L
same,histamine-like symptoms (in words),[5],no histamine‐like symptoms were observed
same,calcium response (in words),[6],did not reach maximal effect at 1mM
same,EC50,[7],39.8 µM
same,Emax,[7],87 ± 8%
same,EC50,[8],158 µM
same,Emax,[8]; U2OS,84 ± 13%
same,calcium response (in words),[8],full or near‐full agonist
same,free Cmax,[9]; assuming 50% protein binding,≈ 35 µmol/L
same,Cmax,[9],≈ 100 µg/ml
same,histamine-like symptoms (in words),[9],no histamine‐like symptoms were observed
same,EC50,[10],25.1 µM
same,Emax,[10]; U2OS,97 ± 12%
same,calcium response (in words),[10],full or near‐full agonist
same,calcium response (in words),[11]; [18],Negligible calcium responses
"C[C@@H](O)[C@@H]1NC(=O)[C@H](CCCCN)NC(=O)[C@H](Cc2c[nH]c3ccccc23)NC(=O)[C@H](Cc2ccccc2)NC(=O)[C@H](Cc2ccccc2)NC(=O)[C@H](CC(N)=O)NC(=O)[C@H](CCCCN)NC(=O)[C@@H](NC(=O)[C@@H]2CCCN2)CSSC[C@@H](C(=O)N[C@@H](CCCCN)C(=O)O)NC(=O)[C@H](CO)NC(=O)[C@H](CO)NC(=O)[C@H](Cc2ccccc2)NC1=O [Cortistatin-14] (HELM PEPTIDE1{P.C.K.N.F.F.W.K.T.F.S.S.C.K}$PEPTIDE1,PEPTIDE1,2:R3-13:R3$$$V2.0)",EC50,[12],0.316 to 0.794 µM
same,calcium response (in words),[1],failed to activate untransfected host cells
same,calcium response (in words),[13],conferred calcium responses
same,calcium response (in words),[6],conferred a response
same,calcium response (in words),[11]; [18],No U2OS calcium response
CCCC[C@@H]1NC(=O)[C@@](C)(NC(C)=O)CCCC=CCCC[C@@](C)(C(=O)N[C@@H](CC(N)=O)C(=O)N[C@@H](CCCNC(=N)N)C(=O)N[C@@H](CCC(N)=O)C(=O)N[C@@H](CCCCN)C(=O)N[C@H](C(=O)N[C@@H](CC(C)C)C(=O)N[C@@H](CCC(=O)O)C(=O)N[C@@H](CCCNC(=N)N)C(=O)N[C@H](C(=O)N[C@@]2(C)CCCC=CCCC[C@@](C)(C(=O)N[C@@H](CCC(=O)O)C(=O)N[C@@H](Cc3c[nH]c4ccccc34)C(=O)N[C@@H](CCCCN)C(=O)N[C@@H](CCC(N)=O)C(=O)N[C@@H](CCCNC(=N)N)C(N)=O)NC(=O)[C@H](CC(N)=O)NC(=O)[C@H](CC(C)C)NC(=O)[C@H]([C@@H](C)CC)NC2=O)[C@@H](C)O)[C@@H](C)CC)NC(=O)[C@H](CO)NC(=O)[C@H](Cc2ccccc2)NC1=O (relative stereo) [Peptide 4],time to observation of symptoms,[14],≤ 3 min
same,IC50 (binding to EED),[15],high affinity
CAS #: 130308-48-4 [Icatibant],fold less potent at mouse than human MrgX2,[16],twofold
same,calcium response (in words),[11]; [18],No U2OS calcium response
CCCC[C@@H]1NC(=O)[C@@](C)(NC(C)=O)CCCC=CCCC[C@@](C)(C(=O)N[C@@H](CC(N)=O)C(=O)N[C@@H](CCCNC(=N)N)C(=O)N[C@@H](CCC(N)=O)C(=O)N[C@@H](CCCCN)C(=O)N[C@H](C(=O)N[C@@H](CC(C)C)C(=O)N[C@@H](CCCNC(=N)N)C(=O)N[C@@H](CCCNC(=N)N)C(=O)N[C@H](C(=O)N[C@@]2(C)CCCC=CCCC[C@@](C)(C(=O)N[C@@H](CCC(=O)O)C(=O)N[C@@H](Cc3c[nH]c4ccccc34)C(=O)N[C@@H](CCCCN)C(=O)N[C@@H](CCC(N)=O)C(=O)N[C@@H](CCCNC(=N)N)C(N)=O)NC(=O)[C@H](CC(N)=O)NC(=O)[C@H](CC(C)C)NC(=O)[C@H]([C@@H](C)CC)NC2=O)[C@@H](C)O)[C@@H](C)CC)NC(=O)[C@H](CO)NC(=O)[C@H](Cc2ccccc2)NC1=O (relative stereo) [GSK3212448],calcium response (in words),[17],activated
same,time to observation of symptoms,[14],≤ 2 min
same,fold more potent than reference agonist 48/80,[6]; rMrgX2 in U2OS cells,18 fold
same,calcium response (in words),[7]; hMrgX2-Gα16-U2OS cells,could activate hMrgX2‐Gα16‐U2OS
same,calcium response (in words),[8],activated
same,calcium response (in words),[10],activated
same,calcium response (in words),[11]; U2OS cells transduced with Gα16 in the absence of hMrgX2,but not Gα16‐U2OS cells
